The source of these data is patent US20100261162A1, “Methods of assaying for telomerase activity and compositions related to same” (priority 2005, published 2010).

This series has as its target T1, telomerase (HEK293T cell lysates) (Homo sapiens, UniProt O14746).
T1 construct: effect of TBT oligonucleotide length in HEK293T cell lysates; endogenous in cells; host or cells: HEK293T cell lysate (CHAPS lysis)
Briefly: TBT assay, effect of telomerase oligonucleotide template length. Type of series: biochemical. To be noted: TBT luminescence, short (0.5 repeat), 2.5 repeat and 3.5 repeat oligonucleotides compared. The source says: FIG. 16 illustrates a graphical representation showing the effect of TBT oligonucleotide length in HEK293T cell lysates according to an embodiment of the present invention.
Design of the telomerase-specific oligonucleotide template attached to the magnetic bead is critical for maximizing sensitivity of the TBT assay. The minimal recognition DNA sequence for base-pairing between the RNA component of telomerase and the telomere end is 9 bases—TAGGGTTAG, however, multiple repeats of this sequence more accurately depict the nature of chromosome telomere ends and the scanning nature of enzymes used to achieve accurate base-pair recognition. Telomerase templates include those ranging from 1.5-3 hexameric repeats.
Three forms of the oligonucleotide were tested. A short version containing a partial (0.5) repeat, a slightly longer version containing 2.5 repeats, and a longer version with 3.5 repeats. […] This increased dynamic range is likely to translate into increased sensitivity of the assay.

T1 sequence (O14746 whole entry): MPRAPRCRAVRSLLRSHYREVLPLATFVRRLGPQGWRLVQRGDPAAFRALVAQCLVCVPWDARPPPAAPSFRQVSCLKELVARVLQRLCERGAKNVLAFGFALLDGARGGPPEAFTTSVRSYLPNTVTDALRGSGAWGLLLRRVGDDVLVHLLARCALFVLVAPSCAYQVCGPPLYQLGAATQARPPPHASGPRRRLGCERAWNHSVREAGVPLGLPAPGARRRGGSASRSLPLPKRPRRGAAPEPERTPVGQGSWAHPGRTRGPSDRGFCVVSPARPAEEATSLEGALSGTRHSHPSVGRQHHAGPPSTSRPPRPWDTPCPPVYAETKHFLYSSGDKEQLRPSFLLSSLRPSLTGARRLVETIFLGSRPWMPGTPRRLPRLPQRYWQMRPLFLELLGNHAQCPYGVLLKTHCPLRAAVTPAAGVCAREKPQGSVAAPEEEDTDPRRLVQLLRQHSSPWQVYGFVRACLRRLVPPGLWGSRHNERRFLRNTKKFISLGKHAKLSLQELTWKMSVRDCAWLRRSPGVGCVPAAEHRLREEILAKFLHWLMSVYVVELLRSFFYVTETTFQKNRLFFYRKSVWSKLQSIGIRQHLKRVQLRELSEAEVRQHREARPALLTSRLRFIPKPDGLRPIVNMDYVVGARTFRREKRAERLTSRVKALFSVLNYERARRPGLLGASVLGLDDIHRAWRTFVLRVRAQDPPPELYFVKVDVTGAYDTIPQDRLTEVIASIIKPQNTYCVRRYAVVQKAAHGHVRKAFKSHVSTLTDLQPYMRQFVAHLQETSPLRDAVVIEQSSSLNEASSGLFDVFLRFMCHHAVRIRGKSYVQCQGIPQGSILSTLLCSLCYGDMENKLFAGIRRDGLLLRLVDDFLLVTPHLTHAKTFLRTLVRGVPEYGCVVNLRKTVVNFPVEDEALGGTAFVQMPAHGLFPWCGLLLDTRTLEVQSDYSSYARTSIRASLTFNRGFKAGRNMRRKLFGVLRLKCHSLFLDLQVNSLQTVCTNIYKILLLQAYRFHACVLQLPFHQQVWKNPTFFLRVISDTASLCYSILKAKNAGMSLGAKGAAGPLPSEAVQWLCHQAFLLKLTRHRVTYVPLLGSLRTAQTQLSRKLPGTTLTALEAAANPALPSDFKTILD

Consider “longer version: Long human telomerase recognition nucleotide sequence, 5′ thiol-linked, 3.5 repeats, attached to magnetic bead (DNA TTTTTTAATCCGTCGAGCAGAGTTAGGGTTAGGGTTAGGGTTAGGGTTAG; 5' thiol linker, attached to magnetic bead, further chemistry not given here)”, for which the “absolute signal relative to the background signal (no telomerase extract)” value was “better absolute signal relative to the background signal”.
